Assays:
Hb in human whole blood = molecular target: T1, Hb in human whole blood (Homo sapiens, UniProt P68871+P69905); assay: Whole blood oxygen affinity assay (Hemox analyzer), human blood; settings: 1 mM compound, 1 hour at 25 C, relative to DMSO
T1 construct: measured in human, dog, and mouse whole blood; from tissue; host or cells: human whole blood
From the text: Whole Blood Oxygen Affinity Assay
Oxygen affinity is a marker of the ability of Hb to bind and release oxygen in solution. It can be determined in whole blood by measuring the percentage of oxygenated and deoxygenated Hb present at a given oxygen concentration. Oxygen affinity is expressed as the p50, the partial pressure of oxygen at which 50% of the Hb in solution has oxygen bound, or the p20, the partial pressure of oxygen at which 20% of the Hb in solution has oxygen bound.
To determine the effects of compounds of the invention on oxygen affinity the p50 and p20 were measured in human, dog, and mouse whole blood using a Hemeox Analyzer (TCS Scientific). The blood was spiked with a compound of the invention to a concentration of 1 mM and incubated for 1 hour at 25 C with constant rotation. A concentration of 1 mM of compound was selected to approximate 20% hemoglobin occupancy in whole blood. Controls with the same concentration of DMSO, but no compound were incubated in the same way at the same time. Following incubation, samples were immediately assayed for oxygen affinity using the Hemox analyzer. Fifty μL of blood sample was diluted into 5 mL of hemox buffer (TCS Scientific), which had been pre-incubated to 37 C. Following dilution, samples were loaded into the analysis chamber, and fully oxygenated using compressed air. Once samples had reached an pO2 of >150 torr, the measurement was initiated by switching to N2, and the percent oxyhemoglobin as a function of partial pressure was recorded. The p20 and p50 of each sample were recorded from the instrument readout. Data are reported as the percent (%) change relative to DMSO according to the following calculations: […]

HbS = molecular target: T2, HbS (Homo sapiens, UniProt P68871+P69905, E7V); assay: 'R'-'T' assay (conversion of oxy HbS to deoxy HbS under deoxygenating conditions); assay type: biochemical; settings: 50% inhibition of HbS 'R'-'T' conversion; 3 uM HbS, <1% O2
T2 construct: HbS was obtained from the blood of homozygous S/S patients; from tissue; host or cells: red blood cells of homozygous S/S patients
Method in brief: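 Oxy HbS diluted to 3 µM in 100 mM potassium phosphate pH 7.4, incubated 1 h at room temperature with compound, then held under <1% O2 for 2 h. Conversion followed by background-corrected 415/430 nm absorbance ratio at 0, 90 and 120 min; percent effect normalized to tucaresol, IC50 from concentration series.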

[1] = tested on: Red Blood Cells (RBCs) from treated animals; assay: Single dose study in sickle Townes mice: RBC sickling under hypoxia; assay type: in vivo, mouse; settings: 0.5 h, SCD mice, n=3
Procedure: (§1) In Vivo Studies Mouse Model
(§2) The effect of the compounds of the invention was evaluated in-male sickle Townes mice in a single dose study. Compounds of the invention were administered in amounts set out in Tables 7, 8 and 9 that follow by oral gavage. Control mice received vehicle. Blood (50 μL) was drawn at 0.5 h, 1 h, 4 h, 7 h, 10 h, and 24 h. To measure exposure in whole blood, 20 μL sample was used. Blood drawn at 0.5 h was also evaluated for cell sickling.
Red Blood Cells (RBCs) from treated animals were diluted to ˜10^7 cells/mL with 300 μL Hemeox solution in a 24-well plate and incubated in a hypoxia chamber, 5% CO2 and 3% O2 for 4 h. Cells were then fixed at room temperature for 30 minutes in sickling fixative solution and stained with TER119 alexa 488 conjugated antibody (BioLegend) for 30 minutes at room temperature, washed and plated at 50,000 cells/well with 200 μL of hemox buffer (TCS Scientific). Data were visualized using Graph Pad Prism (Version 5). Results are expressed as mean±standard error of the mean (SEM). Statistical analysis was made using a non-parametric one-way analysis of variance (ANOVA) followed by a Dunnett's multiple comparison. Significance was accepted when p<0.01.

[2] = Single dose study in sickle Townes mice: exposure in whole blood; assay type: in vivo; settings: male, Townes (sickle cell disease model), mouse, SCD mice, n=3
Procedure: as §1, §2

Townes SCD mice = assay: Chronic dosing study (BID, 15 days) in Townes SCD mice; assay type: in vivo, mouse; settings: 200 mg/kg BID for 15 days, Townes SCD mice, vs vehicle; for sVCAM1, Change (decrease): ELISA
Procedure: Following 15 days of dosing, blood samples were collected from all animals to run in the Hemeox analyzer to generate oxygen affinity curves, complete blood analysis was performed using Idexx hematology Analyzer, and cell sickling assessed as described before. Soluble Vascular Adhesion Molecule 1 levels (sVCAM1) were assessed by Enzyme linked immunosorbent assay (ELISA) from R&D systems. Results are presented below in Tables 7, 8 and 9.

[3] = single dose 30 mg/kg oral gavage
[4] = single dose 100 mg/kg oral gavage
[5] = single dose 300 mg/kg oral gavage
[6] = single dose 900 mg/kg oral gavage
[7] = single dose 10 mg/kg oral gavage
[8] = single dose 40 mg/kg oral gavage
[9] = single dose 220 mg/kg oral gavage
[10] = single dose 490 mg/kg oral gavage

SMILES | Reduction in p20 (%) Human (Hb in human whole blood) | Reduction in p50 (%) Human (Hb in human whole blood) | IC50 (HbS) | sVCAM1, Change (decrease) (Townes SCD mice) | Hb, Change (increase) (Townes SCD mice) | Hematocrit, Change (increase) (Townes SCD mice) | RBC sickling, Change (decrease) (Townes SCD mice) | RBCs, Change (increase) (Townes SCD mice) | Reticulocytes, Change (decrease) (Townes SCD mice) | p20, Change (decrease) (Townes SCD mice) | p50, Change (decrease) (Townes SCD mice) | further results
C[C@H](Oc1cc2cc(F)cc(F)c2nc1N)c1cc(C(=O)O)ccc1-n1cccn1 [Example 21, 3-{(1S)-1-[(2-amino-6,8-difluoroquinolin-3-yl)oxy]ethyl}-4-(1H-pyrazol-1-yl)benzoic Acid] | 25 ± 9% | 14 ± 10% | 4.62 µM | 6.57 ± 3.75% decrease | 43.7 ± 9.83% increase | 29.1 ± 11.2% increase | 30.8 ± 14.5% decrease | 44.6 ± 9.04% increase | 32.7 ± 9.37% decrease | 76.1 ± 13.9% decrease | 26.2 ± 9.7% decrease | % Change in RBC Sickling [1, 3]: 2.03%; % Change in RBC Sickling [1, 4]: −0.02%; % Change in RBC Sickling [1, 5]: 24.6%; % Change in RBC Sickling [1, 6]: 29.0%; concentration at 0.5 h [2, 3]: 14.7 µM; concentration at 0.5 h [2, 4]: 303 µM; concentration at 0.5 h [2, 5]: 1140 µM; concentration at 0.5 h [2, 6]: 1500 µM
C[C@H](Oc1cc2cc(F)ccc2nc1N)c1nc(O)ccc1-n1cccn1 [Example 58, 6-{(1S)-1-[(2-amino-6-fluoroquinolin-3-yl)oxy]ethyl}-5-(1H-pyrazol-1-yl)pyridin-2-ol] | 24 ± 19% | 12 ± 9% | 4.8 µM | 9.98 ± 7.1% decrease | 42.4 ± 4.2% increase | 30.9 ± 0.7% increase | 37.8 ± 9.0% decrease | 39.2 ± 9.3% increase | 54.7 ± 2.4% decrease | 84.4 ± 2.6% decrease | 53.7 ± 21.2% decrease | % Change in RBC Sickling [1, 7]: −6.2%; % Change in RBC Sickling [1, 8]: 4.6%; % Change in RBC Sickling [1, 9]: 50.8%; % Change in RBC Sickling [1, 10]: 48.3%; concentration at 0.5 h [2, 7]: 35.8 µM; concentration at 0.5 h [2, 8]: 285 µM; concentration at 0.5 h [2, 9]: 1450 µM; concentration at 0.5 h [2, 10]: 2870 µM
